The values below come from patent US12012467B2, “Small molecule DCN1 inhibitors and therapeutic methods using the same” (THE REGENTS OF THE UNIVERSITY OF MICHIGAN, priority 2017, dated 2024).

Molecules are shown by their SMILES. Square brackets hold non-standard residues; d marks the D form. Peptide text beside a SMILES is read from it. * marks the point of attachment. Ala(6-iPr-benzothiazol-2-yl) = CC(C)c1ccc2nc(C[C@H](N)C(=O)O)sc2c1; Abu(4,4,4-F3) = N[C@@H](CC(F)(F)F)C(=O)O; 2Nal = N[C@@H](Cc1ccc2ccccc2c1)C(=O)O; NHPhenethyl = c1ccc(CCN*)cc1; Propionyl = CCC(=O)*; NHPh = c1ccc(N*)cc1; For = O=C*

The first experiment deals with DCN1 (Homo sapiens (Human), UniProt Q96GG9). The experiment can be described thus: Competitive FP binding assay. The note with it: bounds given in μM; read-out: Binding affinity to DCN1 (IC50). On the procedure: Competitive FP Binding Assay
Sequence of DCN1 (Q96GG9 58-259): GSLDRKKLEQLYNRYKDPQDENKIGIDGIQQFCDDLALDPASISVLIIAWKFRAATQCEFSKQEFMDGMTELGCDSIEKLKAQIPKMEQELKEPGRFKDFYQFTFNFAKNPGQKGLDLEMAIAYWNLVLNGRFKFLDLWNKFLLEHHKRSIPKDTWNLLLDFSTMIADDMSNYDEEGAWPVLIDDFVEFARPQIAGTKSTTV
The Fluorescence Polarization (FP) competitive binding assays were performed to accurately determine the binding affinities of our DCN1 inhibitors. […] Serial dilutions of proteins were mixed with 46 to a final volume of 200 μl in the assay buffer (100 mM phosphate buffer, pH=6.5, with 0.02% Tween-20 and 2% DMSO). Final probe concentration was 5 nM for both assays. Plates were incubated at room temperature for 30 minutes with gentle shaking to assure equilibrium.
Pure proteins were derived from the same expression and purification protocols. Plasmids were transformed into Rosetta2 cells, the cells were grown in Terrific Broth at 37° C. to an O.D.600>1.0 and induced with 0.4 mM Isopropyl (3-D-1-thiogalactopyranoside overnight at 20° C. The pelleted cells were resuspended in lysis buffer containing 25 mM Tris-HCl, pH 7.5, 200 mM NaCl and protease inhibitors, sonicated and centrifuged at 34,000×g for 45 minutes to remove debris. Cleared lysate was incubated with Ni-NTA resin (Qiagen) prewashed with lysis buffer, for 1 hr at 4° C. The matrix was loaded into a column then washed with 25 mM Tris-HCl, pH 7.5, 200 mM NaCl and 10 mM imidazole. Protein was eluted with 25 mM Tris-HCl, pH 7.5, 200 mM NaCl and 300 mM imidazole, concentrated and applied to a Superdex 75 (GE Healthcare) column pre-equilibrated with 25 mM Tris pH 7.5, 200 mM NaCl and 1 mM DTT. For DCN2-5, the N-terminal His6 tag was removed prior to gel filtration. Tag removal was achieved through incubation with TEV protease during overnight dialysis against 25 mM Tris pH 7.5, 200 mM NaCl and 1 mM DTT and a second Ni-NTA column. DCN2-5 proteins were stored at −80° C. in 1 mg/mL fractions containing 5% glycerol. The uncleaved DCN1 protein was stored at −80° C. without glycerol.
For `CCC(=O)N[C@@H](Cc1ccc2ccccc2c1)C(=O)N[C@H](C(=O)N[C@@H](CCCCN)C(=O)Nc1ccccc1)[C@@H](C)CC` [Example 9] (Propionyl-[2Nal]-Ile-Lys-NHPh), the IC50 (in general, the concentration at which inhibition is half-maximal) was greater than 10 µM.
Same read-out and setting: under `CC[C@H](C)[C@H](NC(=O)[C@@H](N)Cc1nc2ccc(C(C)C)cc2s1)C(=O)N[C@@H](CCCCN)C(=O)N[C@@H](CC(C)C)C(N)=O` [Example 272] (H-[Ala(6-iPr-benzothiazol-2-yl)]IKL-NH2) stands greater than 10 µM; under `CC[C@H](C)[C@H](NC(=O)[C@H](Cc1ccc2ccccc2c1)NC=O)C(=O)N[C@@H](CCCCN)C(=O)N[C@@H](CC(C)C)C(N)=O` [Example 143] (For-[2Nal]IKL-NH2), greater than 10 µM.
For `CCC(=O)N[C@@H](Cc1nc2ccc(C(C)C)cc2s1)C(=O)N[C@@H](CNC(=O)CCN1CCOCC1)Cc1ccccc1` (stereo in doubt) [Example 94], the IC50 was greater than 10 µM.
For the molecule `CCC(=O)N[C@@H](Cc1nc(C)c(C(C)C)s1)C(=O)N[C@H](CN)Cc1ccccc1` [Example 99], the IC50 is greater than 10 µM.
On the same count and under the same terms, the same measure for `CCC(=O)N[C@@H](Cc1nc2ccc(C(C)C)cc2s1)C(=O)NCCN` [Example 53, (S)—N-(2-aminoethyl)-3-(6-isopropylbenzo[d]thiazol-2-yl)-2-propionamidopropanamide]: greater than 10 µM.
Same read-out and setting: under `CCC(=O)N[C@@H](Cc1ccc2ccccc2c1)C(=O)N[C@H](C(=O)N[C@@H](CCCCN)C(=O)NCCc1ccccc1)[C@@H](C)CC` [Example 11] (Propionyl-[2Nal]-Ile-Lys-NHPhenethyl) stands greater than 10 µM; under `CCC(=O)N[C@@H](Cc1cn(-c2cccc(Cl)c2)cn1)C(=O)N[C@H](CN)Cc1ccccc1` [Example 239], greater than 10 µM.

Still in this experiment, the particulars now being: read-out: Binding affinity to DCN1 (IC50 (nM)).
In the case of `CCC(=O)N[C@@H](Cc1nc2ccc(Cl)cc2s1)C(=O)N[C@H](C(=O)N[C@@H](CCCCN(C)C)C(=O)N[C@@H]1CN(C)Cc2ccccc21)C1CCCC1` [Example 40], the IC50 was determined as 0.163 µM.
Still for that read-out and setting: under `CCC(=O)N[C@@H](Cc1nc2ccc(C(C)C)cc2s1)C(=O)N[C@@H](CC(F)(F)F)C(=O)N[C@@H](CCCCN)C(=O)N[C@@H](CC(C)C)C(N)=O` [Example 284] (Propionyl-[Ala(6-iPr-benzothiazol-2-yl)][Abu(4,4,4-F3)]KL-NH2) stands 0.154 µM; under `CCC(=O)N[C@@H](Cc1nc2ccc(C(C)C)cc2s1)C(=O)N[C@H](C(=O)N[C@@H](CCCCN)C(N)=O)C1CCCCC1` [Example 291], 0.116 µM.
On the same count and under the same terms, the same measure for `CCC(=O)N[C@@H](Cc1ccc2ccccc2c1)C(=O)N[C@H](C(=O)N[C@@H](CCCCN)C(=O)N[C@H]1CCCc2ccccc21)[C@@H](C)CC` [Example 16]: 0.795 µM; for `CC[C@H](C)[C@H](NC(=O)[C@H](Cc1nc2cc(Cl)ccc2s1)NC(C)=O)C(=O)N[C@@H](CCCCN)C(=O)N[C@@H](CC(C)C)C(N)=O` [Example 3, (S)-2-((2S,3 S)-2-((S)-2-acetamido-3-(5-chlorobenzo[d]thiazol-2-yl)propanamido)-3-methylpentanamido)-6-amino-N—((S)-1-amino-4-methyl-1-oxopentan-2-yl)hexanamide]: 0.0092 ± 0.0014 µM; for `CCC(=O)N[C@@H](Cc1nc2ccc(CC)cc2o1)C(=O)N[C@H](C(=O)N[C@@H](CCCCN)C(=O)N[C@@H]1CCOc2ccccc21)C1CCOCC1` [Example 196]: 0.0711 µM.
On to `CCC(=O)N[C@@H](Cc1nc2ccc(C)cc2s1)C(=O)N[C@H](C(=O)N[C@@H](CCCCN)C(=O)NC(c1ccccc1)c1ccccc1)C1CCCC1` [Example 173], for which the IC50 is 0.0581 µM.
Still for that read-out and setting: under `CCC(=O)N[C@@H](Cc1nc(C)c(-c2cccc(Br)c2)s1)C(=O)N[C@H](CN)Cc1ccccc1` [Example 232] stands 0.984 µM.
Still for that read-out and setting: the same measure for `CCC(=O)N[C@@H](Cc1nc2ccc(C)cc2s1)C(=O)N[C@H](C(=O)N[C@@H](CCCCN)C(=O)N[C@@H]1CCOc2ccccc21)C1CCOCC1` [Example 181]: 0.176 µM; for `CCC(=O)N[C@@H](Cc1nc2ccc(C(C)C)cc2s1)C(=O)N[C@H](CNC(=O)C1CNC1)C1CCCCC1` [Example 68]: 0.0666 µM.
